Results as given in ChEMBL document CHEMBL3991601, “The target landscape of clinical kinase drugs” (Science, 2017).
The source made the active and inactive calls.

How the values were obtained:
[1] = molecular target: Serine/threonine-protein kinase ATR (Homo sapiens, UniProt Q13535)
[2] = molecular target: Cyclin-dependent kinase 18 (Homo sapiens, UniProt Q07002)
[3] = molecular target: Dual specificity tyrosine-phosphorylation-regulated kinase 1B (Homo sapiens, UniProt Q9Y463)
[4] = molecular target: Eukaryotic peptide chain release factor GTP-binding subunit ERF3B (Homo sapiens, UniProt Q8IYD1)
Chain of Eukaryotic peptide chain release factor GTP-binding subunit ERF3B (Q8IYD1 whole entry): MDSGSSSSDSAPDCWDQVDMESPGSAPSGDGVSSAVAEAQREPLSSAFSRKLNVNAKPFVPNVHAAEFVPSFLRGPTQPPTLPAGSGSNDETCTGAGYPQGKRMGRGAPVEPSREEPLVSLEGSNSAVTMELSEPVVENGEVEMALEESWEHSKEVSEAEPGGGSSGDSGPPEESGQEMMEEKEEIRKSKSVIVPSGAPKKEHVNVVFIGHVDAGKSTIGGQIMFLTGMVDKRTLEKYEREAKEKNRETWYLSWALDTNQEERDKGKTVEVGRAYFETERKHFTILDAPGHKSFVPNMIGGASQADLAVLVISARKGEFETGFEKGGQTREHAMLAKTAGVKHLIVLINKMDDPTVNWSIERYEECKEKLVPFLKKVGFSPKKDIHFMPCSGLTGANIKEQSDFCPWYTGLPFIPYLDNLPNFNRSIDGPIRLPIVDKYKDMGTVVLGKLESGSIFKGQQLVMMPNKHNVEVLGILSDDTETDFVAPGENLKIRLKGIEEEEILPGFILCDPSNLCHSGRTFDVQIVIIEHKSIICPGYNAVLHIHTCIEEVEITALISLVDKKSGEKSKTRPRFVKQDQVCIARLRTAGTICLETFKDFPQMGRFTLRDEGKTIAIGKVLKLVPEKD

[5] = molecular target: Mast/stem cell growth factor receptor Kit (Homo sapiens, UniProt P10721)
Chain of Mast/stem cell growth factor receptor Kit (P10721 whole entry): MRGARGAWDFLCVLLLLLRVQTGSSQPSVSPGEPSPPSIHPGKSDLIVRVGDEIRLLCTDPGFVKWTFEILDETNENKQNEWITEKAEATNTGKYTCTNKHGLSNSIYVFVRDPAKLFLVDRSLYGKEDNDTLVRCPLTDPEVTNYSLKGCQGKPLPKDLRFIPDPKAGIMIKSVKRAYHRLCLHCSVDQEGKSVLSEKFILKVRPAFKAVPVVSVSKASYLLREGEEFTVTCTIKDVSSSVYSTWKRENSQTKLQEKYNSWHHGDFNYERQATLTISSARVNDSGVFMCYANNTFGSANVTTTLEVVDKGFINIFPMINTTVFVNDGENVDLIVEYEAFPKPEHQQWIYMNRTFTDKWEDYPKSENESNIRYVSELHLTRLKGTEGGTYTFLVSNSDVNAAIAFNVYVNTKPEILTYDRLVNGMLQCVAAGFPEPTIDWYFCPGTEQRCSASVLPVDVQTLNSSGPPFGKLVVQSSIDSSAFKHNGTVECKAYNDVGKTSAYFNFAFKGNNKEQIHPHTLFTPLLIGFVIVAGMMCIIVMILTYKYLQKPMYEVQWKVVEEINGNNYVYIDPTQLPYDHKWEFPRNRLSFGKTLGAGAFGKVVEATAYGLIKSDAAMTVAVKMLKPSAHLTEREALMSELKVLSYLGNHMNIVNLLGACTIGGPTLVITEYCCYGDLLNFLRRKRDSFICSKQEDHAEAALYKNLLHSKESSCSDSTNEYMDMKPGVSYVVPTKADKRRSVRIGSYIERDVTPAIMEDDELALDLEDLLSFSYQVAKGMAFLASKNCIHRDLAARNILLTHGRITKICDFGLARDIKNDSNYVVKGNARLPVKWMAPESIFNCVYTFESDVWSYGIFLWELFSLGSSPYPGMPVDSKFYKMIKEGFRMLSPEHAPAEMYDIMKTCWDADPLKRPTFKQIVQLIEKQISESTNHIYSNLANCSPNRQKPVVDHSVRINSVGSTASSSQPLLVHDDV

[6] = molecular target: T1, Dual specificity mitogen-activated protein kinase kinase 4 (Homo sapiens, UniProt P45985)
T1 sequence (P45985 whole entry): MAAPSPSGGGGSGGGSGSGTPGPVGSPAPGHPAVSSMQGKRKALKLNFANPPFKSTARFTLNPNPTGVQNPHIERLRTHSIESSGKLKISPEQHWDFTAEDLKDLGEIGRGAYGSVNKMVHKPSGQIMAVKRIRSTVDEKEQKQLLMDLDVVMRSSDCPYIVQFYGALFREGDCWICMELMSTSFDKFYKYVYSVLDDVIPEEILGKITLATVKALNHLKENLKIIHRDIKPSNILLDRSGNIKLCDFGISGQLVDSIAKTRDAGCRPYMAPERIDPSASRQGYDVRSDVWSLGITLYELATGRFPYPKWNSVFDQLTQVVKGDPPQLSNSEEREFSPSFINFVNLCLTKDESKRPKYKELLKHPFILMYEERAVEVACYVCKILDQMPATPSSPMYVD

[7] = molecular target: 5'-AMP-activated protein kinase subunit gamma-1 (Homo sapiens, UniProt P54619)
[8] = molecular target: Serine/threonine-protein kinase 24 (Homo sapiens, UniProt Q9Y6E0)
[9] = molecular target: Serine/threonine-protein kinase 38 (Homo sapiens, UniProt Q15208)
Chain of Serine/threonine-protein kinase 38 (Q15208 whole entry): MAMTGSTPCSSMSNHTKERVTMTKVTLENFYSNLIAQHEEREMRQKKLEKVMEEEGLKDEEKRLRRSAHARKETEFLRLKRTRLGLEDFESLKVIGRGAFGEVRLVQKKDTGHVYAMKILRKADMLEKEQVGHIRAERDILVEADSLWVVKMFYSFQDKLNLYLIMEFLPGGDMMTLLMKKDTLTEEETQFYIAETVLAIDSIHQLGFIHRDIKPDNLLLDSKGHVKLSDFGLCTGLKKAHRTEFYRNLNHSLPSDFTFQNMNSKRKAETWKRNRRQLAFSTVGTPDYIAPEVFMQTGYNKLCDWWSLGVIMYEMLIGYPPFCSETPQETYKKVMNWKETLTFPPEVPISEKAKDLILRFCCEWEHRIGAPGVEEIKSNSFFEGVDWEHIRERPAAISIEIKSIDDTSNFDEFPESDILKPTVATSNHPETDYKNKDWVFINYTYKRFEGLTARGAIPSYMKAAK

[10] = molecular target: ALK tyrosine kinase receptor (Homo sapiens, UniProt Q9UM73); assay type: subcellular, K-562, COLO 205, SK-N-BE(2) and MV-4-11, Cell lysate; conditions: read-out: Kd apparent
[11] = molecular target: T2, Isoleucine--tRNA ligase, mitochondrial (Homo sapiens, UniProt Q9NSE4)
T2 sequence (Q9NSE4 whole entry): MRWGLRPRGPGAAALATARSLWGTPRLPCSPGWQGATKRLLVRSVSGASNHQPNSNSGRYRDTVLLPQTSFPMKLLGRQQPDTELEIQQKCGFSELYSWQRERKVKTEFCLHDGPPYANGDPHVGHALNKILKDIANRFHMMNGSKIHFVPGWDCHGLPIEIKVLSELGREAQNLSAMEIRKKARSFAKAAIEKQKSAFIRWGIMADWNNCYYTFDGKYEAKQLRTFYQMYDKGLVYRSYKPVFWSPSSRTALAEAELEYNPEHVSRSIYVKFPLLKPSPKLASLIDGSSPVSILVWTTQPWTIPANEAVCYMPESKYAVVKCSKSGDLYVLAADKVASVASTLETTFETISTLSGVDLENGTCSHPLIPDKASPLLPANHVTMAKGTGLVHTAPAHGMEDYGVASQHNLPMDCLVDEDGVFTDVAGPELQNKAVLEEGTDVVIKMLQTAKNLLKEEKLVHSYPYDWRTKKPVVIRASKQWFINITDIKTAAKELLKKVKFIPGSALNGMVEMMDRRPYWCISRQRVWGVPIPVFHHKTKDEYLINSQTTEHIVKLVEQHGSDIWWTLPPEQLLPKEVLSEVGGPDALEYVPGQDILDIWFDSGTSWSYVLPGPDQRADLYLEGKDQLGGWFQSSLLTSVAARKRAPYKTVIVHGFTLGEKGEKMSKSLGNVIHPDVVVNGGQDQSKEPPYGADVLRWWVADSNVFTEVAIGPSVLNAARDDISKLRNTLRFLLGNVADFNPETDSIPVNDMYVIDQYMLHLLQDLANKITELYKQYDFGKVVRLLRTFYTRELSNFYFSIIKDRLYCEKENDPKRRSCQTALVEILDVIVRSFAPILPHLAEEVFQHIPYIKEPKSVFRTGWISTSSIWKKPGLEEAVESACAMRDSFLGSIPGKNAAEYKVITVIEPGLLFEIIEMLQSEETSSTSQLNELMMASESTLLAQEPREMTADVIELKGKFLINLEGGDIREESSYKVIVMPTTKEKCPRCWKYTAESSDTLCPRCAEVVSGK

[12] = molecular target: Serine/threonine-protein kinase pim-2 (Homo sapiens, UniProt Q9P1W9)
Chain of Serine/threonine-protein kinase pim-2 (Q9P1W9 whole entry): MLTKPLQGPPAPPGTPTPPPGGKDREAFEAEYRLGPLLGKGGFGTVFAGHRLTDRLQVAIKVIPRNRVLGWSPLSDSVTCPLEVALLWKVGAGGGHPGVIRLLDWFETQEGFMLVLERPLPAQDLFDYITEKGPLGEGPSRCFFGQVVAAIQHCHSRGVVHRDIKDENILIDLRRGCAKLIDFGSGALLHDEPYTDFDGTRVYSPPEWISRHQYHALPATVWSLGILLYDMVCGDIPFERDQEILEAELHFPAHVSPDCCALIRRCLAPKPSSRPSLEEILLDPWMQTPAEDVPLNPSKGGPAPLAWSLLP

[13] = molecular target: Ras-related C3 botulinum toxin substrate 1 (Homo sapiens, UniProt P63000)
[14] = molecular target: Nucleoside diphosphate kinase B (Homo sapiens, UniProt P22392)
[15] = molecular target: Cyclin-dependent kinase 10 (Homo sapiens, UniProt Q15131)
[16] = molecular target: Cyclin-dependent kinase 9 (Homo sapiens, UniProt P50750)
Chain of Cyclin-dependent kinase 9 (P50750 whole entry): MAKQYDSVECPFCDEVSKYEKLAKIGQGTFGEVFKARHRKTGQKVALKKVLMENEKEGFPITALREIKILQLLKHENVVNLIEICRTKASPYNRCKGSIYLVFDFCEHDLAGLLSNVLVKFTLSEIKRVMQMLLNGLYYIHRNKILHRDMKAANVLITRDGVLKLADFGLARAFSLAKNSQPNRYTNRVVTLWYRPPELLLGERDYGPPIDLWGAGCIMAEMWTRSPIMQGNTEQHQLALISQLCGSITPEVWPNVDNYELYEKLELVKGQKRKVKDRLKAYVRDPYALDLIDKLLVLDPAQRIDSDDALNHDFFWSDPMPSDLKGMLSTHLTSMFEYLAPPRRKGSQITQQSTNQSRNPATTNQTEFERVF

[17] = molecular target: Tyrosine-protein kinase JAK2 (Homo sapiens, UniProt O60674)
Chain of Tyrosine-protein kinase JAK2 (O60674 whole entry): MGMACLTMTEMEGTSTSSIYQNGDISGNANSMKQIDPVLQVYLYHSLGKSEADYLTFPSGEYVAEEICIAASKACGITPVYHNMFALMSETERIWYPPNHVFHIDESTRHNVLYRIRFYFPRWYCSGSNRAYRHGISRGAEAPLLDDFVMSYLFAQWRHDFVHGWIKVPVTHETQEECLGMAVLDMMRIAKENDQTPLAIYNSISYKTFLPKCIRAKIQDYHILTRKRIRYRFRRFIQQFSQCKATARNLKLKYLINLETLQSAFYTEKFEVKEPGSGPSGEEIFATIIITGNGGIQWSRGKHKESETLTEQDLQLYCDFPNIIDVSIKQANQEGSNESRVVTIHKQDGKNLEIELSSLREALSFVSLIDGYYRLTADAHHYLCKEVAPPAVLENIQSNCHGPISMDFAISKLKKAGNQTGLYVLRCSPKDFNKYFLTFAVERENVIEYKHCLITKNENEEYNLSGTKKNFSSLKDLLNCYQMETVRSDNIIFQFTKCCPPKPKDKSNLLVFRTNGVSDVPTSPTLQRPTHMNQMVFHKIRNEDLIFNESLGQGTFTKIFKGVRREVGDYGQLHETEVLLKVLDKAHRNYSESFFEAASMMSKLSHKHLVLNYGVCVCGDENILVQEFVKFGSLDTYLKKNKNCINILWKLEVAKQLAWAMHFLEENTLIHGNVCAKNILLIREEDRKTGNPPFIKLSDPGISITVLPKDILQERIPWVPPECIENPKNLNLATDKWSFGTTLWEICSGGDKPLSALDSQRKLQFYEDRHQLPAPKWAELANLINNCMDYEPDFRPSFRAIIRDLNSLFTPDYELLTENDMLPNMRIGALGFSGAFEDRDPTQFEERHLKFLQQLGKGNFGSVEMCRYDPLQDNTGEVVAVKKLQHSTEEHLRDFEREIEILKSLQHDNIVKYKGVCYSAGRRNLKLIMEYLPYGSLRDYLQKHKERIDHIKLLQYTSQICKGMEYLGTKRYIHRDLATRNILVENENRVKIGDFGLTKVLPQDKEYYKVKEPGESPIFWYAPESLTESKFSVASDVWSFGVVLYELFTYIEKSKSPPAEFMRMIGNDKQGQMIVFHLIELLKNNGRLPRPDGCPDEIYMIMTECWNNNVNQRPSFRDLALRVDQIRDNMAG

[18] = molecular target: Dual specificity testis-specific protein kinase 2 (Homo sapiens, UniProt Q96S53)
Chain of Dual specificity testis-specific protein kinase 2 (Q96S53 whole entry): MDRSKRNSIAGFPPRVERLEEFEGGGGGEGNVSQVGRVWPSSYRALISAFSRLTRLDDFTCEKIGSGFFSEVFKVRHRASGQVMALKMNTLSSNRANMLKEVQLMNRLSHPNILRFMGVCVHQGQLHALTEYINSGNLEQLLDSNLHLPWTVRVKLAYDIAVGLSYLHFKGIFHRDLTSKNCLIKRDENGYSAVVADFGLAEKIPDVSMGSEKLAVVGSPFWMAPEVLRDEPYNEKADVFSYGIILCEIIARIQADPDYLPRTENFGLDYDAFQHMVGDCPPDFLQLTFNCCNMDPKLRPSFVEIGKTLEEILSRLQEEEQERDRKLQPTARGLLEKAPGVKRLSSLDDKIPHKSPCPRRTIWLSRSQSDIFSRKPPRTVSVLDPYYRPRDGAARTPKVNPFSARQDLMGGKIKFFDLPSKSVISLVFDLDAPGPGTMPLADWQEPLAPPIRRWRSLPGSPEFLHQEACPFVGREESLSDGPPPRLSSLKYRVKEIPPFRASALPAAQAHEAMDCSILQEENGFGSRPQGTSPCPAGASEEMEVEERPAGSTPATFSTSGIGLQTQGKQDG

[19] = molecular target: Activin receptor type-1-like (Homo sapiens, UniProt P37023)
[20] = molecular target: Tyrosine-protein kinase Fgr (Homo sapiens, UniProt P09769)
Further: in the data inactive means no Kd found up to 30 µM.

Chain of Cyclin-dependent kinase 18 (Q07002 whole entry): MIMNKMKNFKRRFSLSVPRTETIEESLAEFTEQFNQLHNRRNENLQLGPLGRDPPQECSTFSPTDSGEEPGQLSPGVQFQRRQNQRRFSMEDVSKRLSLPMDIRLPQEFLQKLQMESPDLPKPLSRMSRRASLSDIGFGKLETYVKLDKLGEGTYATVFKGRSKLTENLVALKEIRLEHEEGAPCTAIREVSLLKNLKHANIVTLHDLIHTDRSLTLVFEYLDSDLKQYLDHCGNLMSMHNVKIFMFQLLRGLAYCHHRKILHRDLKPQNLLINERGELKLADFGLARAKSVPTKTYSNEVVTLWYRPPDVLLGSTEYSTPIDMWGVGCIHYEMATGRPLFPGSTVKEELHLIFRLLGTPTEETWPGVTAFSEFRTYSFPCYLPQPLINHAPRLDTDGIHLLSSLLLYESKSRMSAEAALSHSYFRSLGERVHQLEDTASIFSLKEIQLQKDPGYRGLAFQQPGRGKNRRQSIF

| Kd [1] | Kd [2] | Kd [3] | Kd [4] | Kd [5] | Kd [6] | Kd [8] | Kd [9] | Kd [10] | Kd [11] | Kd [12] | Kd [14] | Kd [15] | Kd [16] | Kd [17] | Kd [18] | Kd [19] | Kd [20] | Compound | Kd [7] | Kd [13] |
| --- | --- | --- | --- | --- | --- | --- | --- | --- | --- | --- | --- | --- | --- | --- | --- | --- | --- | --- | --- | --- |
| > 30 µM (inactive) | > 30 µM (inactive) | > 30 µM (inactive) | > 30 µM (inactive) | > 30 µM (inactive) | > 30 µM (inactive) | > 30 µM (inactive) | > 30 µM (inactive) |  |  |  |  |  |  |  |  |  |  | COc1c(OCCCN2CCOCC2)ccc2c1N=C(NC(=O)c1cnc(N)nc1)N1CCN=C21 [COPANLISIB] | > 30 µM (inactive) |  |
|  | > 30 µM (inactive) |  |  |  |  | > 30 µM (inactive) | > 30 µM (inactive) | > 30 µM (inactive) | > 30 µM (inactive) | > 30 µM (inactive) |  |  |  |  |  |  |  | CN(C[C@@H]1COCCO1)S(=O)(=O)Nc1ccc2ccc3ncc(-c4cnn(C)c4)cc3c(=O)c2c1 [MK-2461] |  |  |
| > 30 µM (inactive) |  |  |  | > 30 µM (inactive) |  | > 30 µM (inactive) | > 30 µM (inactive) | > 30 µM (inactive) | > 30 µM (inactive) |  | > 30 µM (inactive) |  |  |  |  |  |  | COc1ncc(-c2ccc3nccc(-c4ccnnc4)c3c2)cc1NS(=O)(=O)c1ccc(F)cc1F [OMIPALISIB] |  |  |
|  |  | 1.26 µM | > 30 µM (inactive) |  | > 30 µM (inactive) | > 30 µM (inactive) |  |  |  | > 30 µM (inactive) |  | > 30 µM (inactive) | > 30 µM (inactive) | > 30 µM (inactive) | > 30 µM (inactive) |  |  | CO[C@H]1C[C@@H]2CC[C@@H](C)[C@@](O)(O2)C(=O)C(=O)N2CCCC[C@H]2C(=O)O[C@H]([C@H](C)C[C@@H]2CC[C@@H](OP(C)(C)=O)[C@H](OC)C2)CC(=O)[C@H](C)/C=C(\C)[C@@H](O)[C@@H](OC)C(=O)[C@H](C)C[C@H](C)/C=C/C=C/C=C/1C [RIDAFOROLIMUS] |  |  |
| > 30 µM (inactive) |  |  | > 30 µM (inactive) | > 30 µM (inactive) |  | > 30 µM (inactive) | > 30 µM (inactive) |  | > 30 µM (inactive) | > 30 µM (inactive) |  |  |  |  | > 30 µM (inactive) |  |  | O=c1[nH]ccc2cc(OC3CCNCC3)ccc12 [SAR-407899 FREE BASE] |  |  |
|  | > 30 µM (inactive) | > 30 µM (inactive) |  |  |  | > 30 µM (inactive) |  |  | > 30 µM (inactive) |  |  |  | > 30 µM (inactive) | > 30 µM (inactive) | > 30 µM (inactive) | > 30 µM (inactive) | > 30 µM (inactive) | CO[C@H]1C[C@@H]2CC[C@@H](C)[C@@](O)(O2)C(=O)C(=O)N2CCCC[C@H]2C(=O)O[C@H]([C@H](C)C[C@@H]2CC[C@@H](O)[C@H](OC)C2)CC(=O)[C@H](C)/C=C(\C)[C@@H](O)[C@@H](OC)C(=O)[C@H](C)C[C@H](C)/C=C/C=C/C=C/1C [SIROLIMUS] |  |  |
| > 30 µM (inactive) |  |  | > 30 µM (inactive) |  | > 30 µM (inactive) | > 30 µM (inactive) |  | > 30 µM (inactive) | > 30 µM (inactive) | > 30 µM (inactive) |  | > 30 µM (inactive) | > 30 µM (inactive) | > 30 µM (inactive) |  |  | > 30 µM (inactive) | CO[C@H]1C[C@@H]2CC[C@@H](C)[C@@](O)(O2)C(=O)C(=O)N2CCCC[C@H]2C(=O)O[C@H]([C@H](C)C[C@@H]2CC[C@@H](OC(=O)C(C)(CO)CO)[C@H](OC)C2)CC(=O)[C@H](C)/C=C(\C)[C@@H](O)[C@@H](OC)C(=O)[C@H](C)C[C@H](C)/C=C/C=C/C=C/1C [TEMSIROLIMUS] |  |  |
| > 30 µM (inactive) |  |  |  | > 30 µM (inactive) | > 30 µM (inactive) | > 30 µM (inactive) | > 30 µM (inactive) |  | > 30 µM (inactive) |  |  |  |  |  |  |  |  | C[C@@H](N)c1ccc(C(=O)Nc2ccnc3[nH]ccc23)cc1 [Y-39983] |  |  |

| Compound | Kd [1] | Kd [2] | Kd [3] | Kd [4] | Kd [5] | Kd [6] | Kd [8] | Kd [9] | Kd [10] | Kd [11] | Kd [12] | Kd [14] | Kd [15] | Kd [16] | Kd [17] | Kd [18] | Kd [19] | Kd [20] | Kd [7] | Kd [13] |
| --- | --- | --- | --- | --- | --- | --- | --- | --- | --- | --- | --- | --- | --- | --- | --- | --- | --- | --- | --- | --- |
| O=C(Nc1nc2cccc(-c3ccc(CN4CCS(=O)(=O)CC4)cc3)n2n1)C1CC1 [FILGOTINIB] | > 30 µM (inactive) |  |  |  |  | > 30 µM (inactive) | > 30 µM (inactive) |  | > 30 µM (inactive) | > 30 µM (inactive) | > 30 µM (inactive) |  |  |  |  |  |  |  | > 30 µM (inactive) | > 30 µM (inactive) |
| CCCCCCCCCCCCCCCCCCOP(=O)([O-])OC1CC[N+](C)(C)CC1 [PERIFOSINE] |  |  |  |  |  |  |  |  |  | > 30 µM (inactive) | > 30 µM (inactive) |  |  |  |  |  |  |  |  | > 30 µM (inactive) |
| Cc1cc(Nc2ncnc3ccc(NC4=NC(C)(C)CO4)cc23)ccc1Oc1ccn2ncnc2c1 [TUCATINIB] |  | > 30 µM (inactive) |  |  |  |  | > 30 µM (inactive) |  | > 30 µM (inactive) | > 30 µM (inactive) |  |  |  |  |  | > 30 µM (inactive) |  |  |  | > 30 µM (inactive) |
